# Measurements: US8338401B2, “Coumarin-amide derivatives and its preparation, said drug composition and its use” (Institute of Materia Medica Chinese Academy of Medical …, priority 2002, dated 2012)
# Read-outs that look alike come from different tables or passages of the source.
# Tests used:
# [1] = test system: kidney tubulointerstitial fibrosis caused by unilateral ureteral obstruction (UUO) in rats; test: Inhibition of kidney tubulointerstitial fibrosis caused by unilateral ureteral obstruction (UUO) in rats; assay type: in vivo, Male Wistar rats; settings: UUO rats; for BUN: oral for 16 days
# Description: Male Wistar rats with initial body weights of 180˜230 g were used. Unilateral ureteral obstruction was performed under pentobarbital anesthesia (35 mg/kg) and sterile conditions. Via a midline incision, the left ureteral was ligated. Sham surgery was performed by making a midline incision but leaving ureteral intact. Following surgery, rats were randomly divided into sham, model, Benazepril (4 mg/kg/day) and Losartan (10 mg/kg/day) as positive control, and compound 149 (5 mg/kg/day, 10 mg/kg/day and 20 mg/kg/day). Starting 2 day before surgery, Benazepril, Losartan and compound 149 were administered for 16 days orally. BUN and creatinine in serum were determined in the 11th and 16th day (Table 6) following initiation of Benazepril, Losartan and compound 149 treatment, at which time animals were killed and the kidneys were harvested. Tissues were dissected, weighed, fixed in 10% formaldehyde and embedded in paraffin wax for pathological analysis.
# [2] = test system: chronic renal failure induced by 5/6 nephrectomy in rats; assay type: in vivo, Male Wistar rats
# Description: The model on chronic renal failure induced by partial renal ablation in rats was set up according to the Guidelines of Pre-clinic Research for New Drugs. Male Wistar rats with initial body weights of 200 g, anesthetized with 35 mg/kg of pentobarbital i.p., the right kidney was removed, and the upper and lower pole […] of the left kidney were resected, stop bleeding, closed the abdominal and sutured. Four weeks following surgery, the BUN, creatinine and urinary protein in rats were determined. […] Rats were randomly divided into seven groups, 30/group, with sham, model, Benazepril (4 mg/kg/day) and Losartan (10 mg/kg/day) as positive control, and compound 149 groups (7.5 mg/kg/day, 15 mg/kg/day and 30 mg/kg/day, respectively). All the groups were administered intragastrically, once per day and 6 (six) times per week, till 16 weeks post surgery. Body weights were weighed to observe the growth of the rats. The above indexes were determined every 4 weeks up to the 16th week following the initiation of drug administration, and at each time, a number of animals were sacrificed and the kidneys were harvested for pathological analysis. Pathological lesions in chronic renal failure models are mainly glomerulosclerosis and interstitial fibrosis. According to the damage extents, glomerulosclerosis is divided into five grades (0 IV). 0 grade means no glomerulus pathological changes at all, and IV grade means ultimately glomerular sclerosis and glassy pathological changes.
# [3] = test system: TGF-β receptor; test: TGF-β receptor binding antagonism assay ([125I]TGF-β1) in Balb/c 3T3 cells; settings: for Inhibition Rate (%): 10 μg/ml, 50 pmol/L [125I]TGF-β1
# Description: Balb/c 3T3 cells were seeded in 24 well-plate and cultured in Dulbecco's modified Eagle's medium (DMEM) supplemented with 10% fetal bovine serum, in 37° C. and 5% CO2, for 2-4 days. When cells were at a near-confluent, medium was changed to the binding buffer (50 mmol/L HEPES containing NaCl, KCl, MgSO4 and CaCl2). The assay was initiated by addition of 50 pmol/L [^125I]TGF-β1 and test compounds. After incubation for 210-240 minutes, the medium was removed, and cells were washed with ice-cold binding buffer. Non-specific bindings in the presence of 10 nmol/L TGF-β1 were determined. The cells were then solubilized using buffer containing Triton X-100 and the radioactivity was measured (see Table 4).
# [4] = 8th week after administration (12 weeks after nephrectomy), 4 mg/kg
# [5] = 8th week after administration (12 wk after nephrectomy), 4 mg/kg
# [6] = 12th week after administration (16 weeks after nephrectomy), 4 mg/kg
# [7] = 12th week after administration (16 wk after nephrectomy), 4 mg/kg
# [8] = 16 weeks after nephrectomy (12 weeks since administration), 4 mg/kg/day
# [9] = 8th week after administration (12 weeks after nephrectomy), 10 mg/kg
# [10] = 8th week after administration (12 wk after nephrectomy), 10 mg/kg
# [11] = 12th week after administration (16 weeks after nephrectomy), 10 mg/kg
# [12] = 12th week after administration (16 wk after nephrectomy), 10 mg/kg
structure (smiles),measurement,setting,value
"CCOC(=O)[C@H](CCc1ccccc1)N[C@H]1CCc2ccccc2N(CC(=O)O)C1=O [Benazepril, reference compound]",inflammatory cell infiltration and tubulointerstitial fibrosis (pathological changes),[1],more significant
same,animals with focal abscess formations in the medulla of kidney,[1]; 4 mg/kg/day,4/7
same,BUN,[1]; 4.0 mg/kg,20.99 ± 1.58 mg/dL
same,BUN,[2]; [4],37.66 ± 8.895 mg/dL
same,serum creatinine (Scr.),[2]; [4],3.54 ± 1.140 mg/dL
same,AII (Angiotensin II),[2]; [5],74.3 ± 13.2 pg/mL
same,UP (urinary protein),[2]; [5],51.1 ± 23.6 mg/day
same,serum TGF-β1,[2]; [5],40.9 ± 26.6 ng/mL
same,Glomerulosclerosis Grade (%): 0,"[2]; 8 wk after ad., 4 mg/kg/day",12.2 ± 19.0%
same,Glomerulosclerosis Grade (%): I,"[2]; 8 wk after ad., 4 mg/kg/day",29.6 ± 23.9%
same,Glomerulosclerosis Grade (%): II,"[2]; 8 wk after ad., 4 mg/kg/day",28.1 ± 18.1%
same,Glomerulosclerosis Grade (%): III,"[2]; 8 wk after ad., 4 mg/kg/day",19.6 ± 24.2%
same,Glomerulosclerosis Grade (%): IV,"[2]; 8 wk after ad., 4 mg/kg/day",5.9 ± 11.2%
same,Glomerulosclerosis Total Grade,"[2]; 8 wk after ad., 4 mg/kg/day",5.5 ± 2.6
same,BUN,[2]; [6],39.48 ± 7.109 mg/dL
same,serum creatinine (Scr.),[2]; [6],2.28 ± 0.70 mg/dL
same,AII (Angiotensin II),[2]; [7],47.8 ± 12.0 pg/mL
same,UP (urinary protein),[2]; [7],66.3 ± 31.9 mg/day
same,serum TGF-β1,[2]; [7],12.8 ± 14.8 ng/mL
same,inflammatory cell infiltration in kidney tissues,"[2]; 12 weeks after nephrectomy (8 weeks since administration), 4 mg/kg/day, some animals",severe
same,Glomerulosclerosis Grade (%): 0,"[2]; 12 wk after ad., 4 mg/kg/day",0%
same,Glomerulosclerosis Grade (%): I,"[2]; 12 wk after ad., 4 mg/kg/day",0%
same,Glomerulosclerosis Grade (%): II,"[2]; 12 wk after ad., 4 mg/kg/day",19.1 ± 27.1%
same,Glomerulosclerosis Grade (%): III,"[2]; 12 wk after ad., 4 mg/kg/day",46.2 ± 15.6%
same,Glomerulosclerosis Grade (%): IV,"[2]; 12 wk after ad., 4 mg/kg/day",34.8 ± 29.9%
same,Glomerulosclerosis Total Grade,"[2]; 12 wk after ad., 4 mg/kg/day",9.8 ± 1.4
same,"glomerulus pathological score, rank among groups",[2]; [8],the highest
same,inflammatory cell infiltration in kidney matrix,[2]; [8],medium-severe
COc1ccc2cc(C(=O)Nc3ccc(S(=O)(=O)Nc4cc(C)on4)cc3)c(=O)oc2c1C [Compound 55],Inhibition Rate (%),[3],52.3%
"CCc1cc2cc(C(=O)Nc3ccc(C(=O)O)c(O)c3)c(=O)oc2cc1OC [Compound 26, 3-(3′-hydroxy-4′-carboxy-phenylamidocarbonyl)-6-ethyl-7-methoxy-coumarin]",IC50,[3],8.5 µg/mL
same,Inhibition Rate (%),[3],95.4%
same,melting point,,266 °C
"COc1cc2oc(=O)c(C(=O)Nc3ccc(S(=O)(=O)NC(=N)N)cc3)cc2cc1Cl [Compound 92, 3-(4′-guanidinosulfonylphenylamidocarbonyl)-6-chloro-7-methoxy-coumarin]",Inhibition Rate (%),[3],106.4%
"COc1ccc2cc(C(=O)Nc3cccc(C(=O)O)c3)c(=O)oc2c1 [Compound 2, 3-(m-carboxyphenylamidocarbonyl)-7-methoxycoumarin]",IC50,[3],13.8 µg/mL
same,Inhibition Rate (%),[3],74.1%
same,melting point,,> 300 °C
CCOC(=O)c1cc2cc([N+](=O)[O-])c(OC)c([N+](=O)[O-])c2oc1=O,melting point,,152 °C
"COc1cc2oc(=O)c(C(=O)Nc3ccc(C(=O)O)c(O)c3)cc2cc1Cl [Compound 87, 3-(3′-hydroxy-4′-carboxy-phenylamidocarbonyl)-6-chloro-7-methoxy-coumarin]",Inhibition Rate (%),[3],91.1%
"CCc1cc2cc(C(=O)Nc3ccc(O)c(C(=O)O)c3)c(=O)oc2cc1OC [Compound 27, 3-(3′-carboxy-4′-hydroxy-phenylamidocarbonyl)-6-ethyl-7-methoxy-coumarin]",Inhibition Rate (%),[3],77.2%
"CCCCc1nc(Cl)c(CO)n1Cc1ccc(-c2ccccc2-c2nn[nH]n2)cc1 [Losartan, reference compound]",inflammatory cell infiltration and tubulointerstitial fibrosis (pathological changes),[1],significantly attenuated
same,BUN,[1]; 10.0 mg/kg,23.88 ± 2.94 mg/dL
same,BUN,[2]; [9],25.64 ± 5.116 mg/dL
same,serum creatinine (Scr.),[2]; [9],2.34 ± 0.268 mg/dL
same,AII (Angiotensin II),[2]; [10],96.7 ± 32.1 pg/mL
same,UP (urinary protein),[2]; [10],32.7 ± 10.3 mg/day
same,serum TGF-β1,[2]; [10],18.7 ± 9.2 ng/mL
same,Glomerulosclerosis Grade (%): 0,"[2]; 8 wk after ad., 10 mg/kg/day",54.4 ± 29.2 %
same,Glomerulosclerosis Grade (%): I,"[2]; 8 wk after ad., 10 mg/kg/day",31.9 ± 20.0%
same,Glomerulosclerosis Grade (%): II,"[2]; 8 wk after ad., 10 mg/kg/day",13.7 ± 14.0%
same,Glomerulosclerosis Grade (%): III,"[2]; 8 wk after ad., 10 mg/kg/day",1.1 ± 3.3 %
same,Glomerulosclerosis Grade (%): IV,"[2]; 8 wk after ad., 10 mg/kg/day",0%
same,Glomerulosclerosis Total Grade,"[2]; 8 wk after ad., 10 mg/kg/day",2.8 ± 1.0
same,BUN,[2]; [11],37.84 ± 5.672 mg/dL
same,serum creatinine (Scr.),[2]; [11],2.21 ± 0.48 mg/dL
same,AII (Angiotensin II),[2]; [12],38.9 ± 17.4 pg/mL
same,UP (urinary protein),[2]; [12],39.3 ± 14.2 mg/day
same,serum TGF-β1,[2]; [12],11.8 ± 12.6 ng/mL
same,"Glomerulus pathological scores, compared with the model group","[2]; 12 weeks after nephrectomy (8 weeks since administration), compound 149 30 mg/kg, Losartan 10 mg/kg/day",less than that of the model group significantly
same,"rates of 0 grade glomerylus in residual kidney, compared with the model group","[2]; 12 weeks after nephrectomy (8 weeks since administration), compound 149 30 mg/kg, Losartan 10 mg/kg/day, P<0.05",higher than that of the model group with significant difference
same,Glomerulosclerosis Grade (%): 0,"[2]; 12 wk after ad., 10 mg/kg/day",0%
same,Glomerulosclerosis Grade (%): I,"[2]; 12 wk after ad., 10 mg/kg/day",10.0 ± 2.9%
same,Glomerulosclerosis Grade (%): II,"[2]; 12 wk after ad., 10 mg/kg/day",45.7 ± 17.7%
same,Glomerulosclerosis Grade (%): III,"[2]; 12 wk after ad., 10 mg/kg/day",41.9 ± 25.6%
same,Glomerulosclerosis Grade (%): IV,"[2]; 12 wk after ad., 10 mg/kg/day",2.8 ± 4.8%
same,Glomerulosclerosis Total Grade,"[2]; 12 wk after ad., 10 mg/kg/day",7.2 ± 1.3
same,"number of grade III glomerulus, compared with the model group","[2]; 16 weeks after nephrectomy (12 weeks since administration), compound 149 30 mg/kg (P<0.01), Losartan 10 mg/kg/day (P<0.05)",less than that of the model group significantly
"CCOC(=O)c1cc2cc([N+](=O)[O-])c(OC)c(OC)c2oc1=O [Compound 227, 3-ethoxycarbonyl-6-nitro-7,8-dimethoxy-coumarin]",melting point,,191 °C
"COc1ccc2cc(C(=O)Nc3ccc(S(=O)(=O)NC(=N)N)cc3)c(=O)oc2c1OC [Compound 66, 3-(4′-guanidinosulfonylphenylamidocarbonyl)-7,8-dimethoxy-coumarin]",Inhibition Rate (%),[3],52.3%
"COc1cc2oc(=O)c(C(=O)Nc3ccc(C(=O)O)c(O)c3)cc2cc1Br [Compound 96, 3-(3′-hydroxy-4′-carboxy-phenylamidocarbonyl)-6-bromo-7-methoxy-coumarin]",Inhibition Rate (%),[3],82.3%
"CCOC(=O)c1cc2cc(CC)c(O)c([N+](=O)[O-])c2oc1=O [Compound 233, 3-ethoxycarbonyl-6-ethyl-7-hydroxy-8-nitro-coumarin]",melting point,,143 °C
"CCOC(=O)c1cc2cc(Cl)c(O)c([N+](=O)[O-])c2oc1=O [Compound 241, 3-ethoxycarbonyl-6-chloro-7-hydroxy-8-nitro-coumarin]",melting point,,195 °C
"COc1ccc2cc(-c3nnc(-c4ccccc4)o3)c(=O)oc2c1 [Compound 206, 3-(2′-phenyl-1′,3′,4′-oxadiazol-5′yl)-7-methoxycoumarin]",Inhibition Rate (%),[3],−0.7%
CCOC(=O)c1cc2cc([N+](=O)[O-])c(O)c([N+](=O)[O-])c2oc1=O,melting point,,176 °C
